Data published in patent US5912237A, “Method of synthesis of desulfated heparin and use thereof for inhibition of elastase and cathespin” (Carolinas HealthCare System, priority 1997, dated 1999).
Several values for one entry are separate records, joined by “and”; a condition that tells them apart may be missing. Equal entries are not always repeated. Entries after “also recorded” stand apart in the source; their conditions may differ.

What was measured:
[1] = tested on: human leukocyte elastase (HLE)-mediated lung injury; experiment: HLE-mediated lung injury in hamsters, bronchoalveolar lavage; assay type: in vivo, golden Syrian hamsters; conditions: hamster; for PMN in bronchoalveolar lavage fluid / Protein in bronchoalveolar lavage fluid / Total Hemoglobin in bronchoalveolar lavage fluid: intratracheal 500 μg followed by HLE 100 μg, 24 hours
Description: The ability of desulfated heparin to prevent human leukocyte elastase (HLE)-mediated lung injury was assessed in female golden Syrian hamsters (Harlan Industries, Indianapolis, Ind.) weighing 90 to 110 g. Phenobarbital-anesthetized hamsters were injected intratracheally with 0.25 ml sterile 0.9% saline (NS), 0.25 ml NS containing HLE (100 μg), or 0.25 ml NS containing 500 μg of heparin (Sigma) or 2-O-desulfated heparin according to Example III followed by 0.25 ml NS with HLE. Animals were killed by exsanguination 24 hours after treatment. The throat was opened and lungs dissected en bloc. The trachea was cannulated with polyethylene tubing and lavaged with five sequential aliquots of 3 ml NS. Lavage fluid was centrifuged at 200 Xg for 10 minutes. The resulting cell pellet was re-suspended in 1 ml Hank's balanced salt solution (HBSS) for performing cell count and differentials. The supernatant was assayed for protein and hemoglobin, as indices of acute injury.

[2] = tested on: human leukocyte elastase (HLE); experiment: HLE degradation of 3H-elastin; assay type: biochemical; conditions: substrate 3H-Elastin
Description: Also, bovine ligament elastin was prepared according to B. C. Starcher, Anal. Biochem. (1976) 74:441-447. The elastin was assessed for purity by amino acid analysis. Its degradation was assayed using elastin radiolabeled with ^3 H-NaBH4, following the methods described in P. J. Stone, et al., Methods Enzymol. (1982) 82:588-605. The tritiated powdered elastin was homogenized and washed in phosphate buffered saline (PBS), pH 7.4 just before use to remove unincorporated radioactivity. A constant amount of human leukocyte elastase (HLE) (67 pmol) was pre-incubated with increasing amounts of 2-O-desulfated heparin (6.7-134 pmol) at 37° C. for 30 minutes in a final volume of 1.0 ml Hepes buffer (0.125 M, 0.125% Triton-X-100, pH 7.5). An aliquot of 900 microliters of each reaction mixture was incubated with 5 mg ^3 H-elastin and 100 microliters of 0.9% saline at 37° C. Solubilized peptides were separated from the elastin suspension by filtration through medium-porosity filter paper. The rate of degradation was determined by quantifying the solubilized ^3 H peptides.

[3] = tested on: rats; conditions: rat, in vivo, 10 mg/kg
[4] = tested on: factor Xa; experiment: Anti-factor Xa activity, plasma treated with Russell viper venom; assay type: biochemical; conditions: for Anti-factor Xa Activity (test time): control plasma 35 sec.
Description: The 2-O-desulfated heparin from Example III was also studied to determine whether plasma dilutions of 0.1 mg/ml heparin or heparin, desulfated according to Example III, inhibited factor Xa, prolonging test time in an assay for Xa activity utilizing plasma treated with Russell viper venom.

[5] = tested on: cathepsin G; experiment: Inhibition of cathepsin G, substrate Suc-Ala-Ala-Pro-Phe-pNA; assay type: biochemical; conditions: for Inhibition of cathepsin G, in words: I:E ratios of greater than 0.4
Description: (§1) The inhibition of HLE by 2-O-desulfated heparin of Example III was measured by incubating a constant amount of HLE (100 pmol) with increasing amounts of 2-O-desulfated heparin ([…]) for 30 minutes at 25° C. in 500 microliters of Hepes buffer (0.125 M, 0.125% Triton-X-100, pH 7.5) diluted to the final volume of 900 microliters. The remaining enzyme activity was measured by adding 100 microliters of 3 mM N-Suc-Ala-Ala-Val-NA (Sigma Chemicals, St. Louis, Mo., made in dimethylsulfoxide [DMSO]) and reading the absorbance of the proteolytically released chromogen 4-Nitroaniline at 405 nm. The percentage of inhibition was calculated based on enzyme activity without inhibitor.
The inhibition of cathepsin G by 2-O-desulfated heparin of Example III was measured as described above, except that the substrate was 3 mM Suc-Ala-Ala-Pro-Phe-pNA (Sigma Chemical, in DMSO).

[6] = tested on: blood coagulation; conditions: Rej et al. and Jaseja et al.; cited from earlier work
[7] = tested on: human test serum; experiment: Activated partial thromboplastin time in vitro; assay type: biochemical; conditions: for Time to Clot Formation: control 35-45
Description: The anti-coagulant potential of the desulfated heparin from Example III was studied by determining its effect on the activated partial thromboplastin time (APPT) in vitro. The test was performed in the usual fashion used to monitor the anti-coagulant effect of heparin clinically in patients. The test used 0.1 and 1.0 mg/ml heparin or heparin, 2-O-desulfated according to Example III, added to human test serum in vitro.

[8] = tested on: human leukocyte elastase (HLE); experiment: Inhibition of HLE, chromogenic substrate N-Suc-Ala-Ala-Val-NA; assay type: biochemical; conditions: for Percent inhibition of HLE: substrate N-Suc-Ala-Ala-Val-NA
Description: The inhibition of HLE by partially N-desulfated heparin of Example I was measured by incubating a constant amount of HLE (100 pmol) with increasing amounts of partially N-desulfated heparin (10-50 pmol, I:E ratio 0.1-0.5) for 30 minutes at 25° C. in 500 microliters of Hepes buffer (0.125 M, 0.125% Triton-X-100, pH 7.5) diluted to the final volume of 900 microliters. The remaining enzyme activity was measured by adding 100 microliters of 3 mM N-Suc-Ala-Ala-Val-NA (Sigma Chemicals, St. Louis, Mo., made in dimethylsulfoxide [DMSO]) and reading the absorbance of the proteolytically released chromogen 4-Nitroaniline at 405 nm. The percentage of inhibition was calculated based on enzyme activity without inhibitor.
as §1

[9] = tested on: human polymorphonuclear leucocyte elastase (HLE); conditions: cited from earlier work
[10] = tested on: factor Xa; experiment: Anti-Xa activity, amidolytic assay with chromogenic peptide substrate; assay type: biochemical
Description: (§2) Heparin modifications HM0500393 through HM0505293 were made from the same lot of porcine intestinal mucosal sodium heparin having 173.0 units/mg USP anticoagulant activity (USP method) and approximately 150 units/mg anti-Xa activity (by amidolytic assay using commercially available chromogenic peptide substrate). Preparation of modifications began with dissolution of 50 to 100 gm heparin to 5-10% concentration in deionized water, followed by addition of sodium borohydride.

[11] = tested on: blood coagulation; experiment: USP anticoagulant activity
Description: as §2

[12] = plasma dilution 1:2 of 0.1 mg/ml
[13] = plasma dilution 1:10 of 0.1 mg/ml
[14] = plasma dilution 1:100 of 0.1 mg/ml
[15] = plasma dilution 1:1000 of 0.1 mg/ml
[16] = Conc. 0.1 mg/ml in human test serum
[17] = Conc. 1.0 mg/ml in human test serum

| Substance | Inhibition of elastase induced injury in vivo, in words [1] | PMN in bronchoalveolar lavage fluid [1] | Protein in bronchoalveolar lavage fluid [1] [mg/mL] | Total Hemoglobin in bronchoalveolar lavage fluid [1] [mg] | Percent inhibition of HLE ([2]; I:E ratio 0.1:1) [%] | Percent inhibition of HLE ([2]; I:E ratio 0.2:1) [%] | Percent inhibition of HLE ([2]; I:E ratio 0.4:1) [%] | Percent inhibition of HLE ([2]; I:E ratio 0.5:1) [%] | Percent inhibition of HLE ([2]; I:E ratio 1.0:1) [%] | Percent inhibition of HLE ([2]; I:E ratio 2.0:1) [%] | Anti-factor Xa Activity (test time) [4, 12] [s] | Anti-factor Xa Activity (test time) [4, 13] [s] | Anti-factor Xa Activity (test time) [4, 14] [s] | Anti-factor Xa Activity (test time) [4, 15] [s] | Percent inhibition of Cathepsin G ([5]; I:E ratio 0.1:1) [%] | Percent inhibition of Cathepsin G ([5]; I:E ratio 0.2:1) [%] | Percent inhibition of Cathepsin G ([5]; I:E ratio 0.4:1) [%] | Percent inhibition of Cathepsin G ([5]; I:E ratio 0.8:1) [%] | Percent inhibition of Cathepsin G ([5]; I:E ratio 1.0:1) [%] | Percent inhibition of Cathepsin G ([5]; I:E ratio 2.0:1) [%] | further results |
| --- | --- | --- | --- | --- | --- | --- | --- | --- | --- | --- | --- | --- | --- | --- | --- | --- | --- | --- | --- | --- | --- |
| 2-O-desulfated heparin [ODH] | potent inhibitors of elastase induced injury in vivo | 9.83 ×10^6 Cells | 65.80 | 1.5 | 73 | 77 | 72 | 85 | 85 | 84 | 42 | 33 | 32 | 32 | 14 | 54 | 56 | 69 | 69 | 67 | Alveolar hemorrhage [3]: produced no alveolar hemorrhage; Antifactor Xa activity, in words [4]: little antifactor XA activity; Inhibition of cathepsin G, in words [5]: significant inhibition of cathepsin G; Anticoagulant activity, in words [6]: minimal anticoagulant activity; Ability to prolong the APTT, in words [7]: little ability to prolong the APTT; Time to Clot Formation [7, 16]: 38 s; Time to Clot Formation [7, 17]: 42 s; HLE inhibitory activity, in words [8]: significant inhibition of human leukocyte elastase; Percent inhibition of HLE ([8]; I:E ratio 0.1:1): 20%; Percent inhibition of HLE ([8]; I:E ratio 0.2:1): 74%; Percent inhibition of HLE ([8]; I:E ratio 0.3:1): 84%; Percent inhibition of HLE ([8]; I:E ratio 0.4:1): 85%; Percent inhibition of HLE ([8]; I:E ratio 0.5:1): 84%; Percent inhibition of HLE ([8]; I:E ratio 0.6:1): 100% |
| dextran [non-sulfated dextran] | – | – | – | – | – | – | – | – | – | – | – | – | – | – | – | – | – | – | – | – | Inhibition of elastase, in words [9]: is not |
| dextran sulfate | – | – | – | – | – | – | – | – | – | – | – | – | – | – | – | – | – | – | – | – | Inhibition of elastase, in words [9]: potent inhibitor of elastase |
| heparin | potent inhibitors of elastase induced injury in vivo | 10.83 ×10^6 Cells | 41.06 | 0.867 | 72 | 95 | 92 | 94 | 97 | 97 | > 480 | > 420 | 42 | 32 | 31 | 49 | 67 | 78 | 76 | 76 | anti-Xa activity [10]: approximately 150 units/mg; Inhibition of cathepsin G, in words [5]: significant inhibition of cathepsin G; Time to Clot Formation [7, 16]: 80 s; Time to Clot Formation [7, 17]: > 150 s; HLE inhibitory activity, in words [8]: significant inhibition of human leukocyte elastase; also recorded: significantly inhibited human leukocyte elastase (HLE) at I:E ratios of greater than 0.2; Percent inhibition of HLE ([8]; I:E ratio 0.2:1): 72% and 51.000%; Percent inhibition of HLE ([8]; I:E ratio 0.2:1, listed as H): 81% and 79%; Percent inhibition of HLE ([8]; I:E ratio 0.3:1): 83% and 91.000%; Percent inhibition of HLE ([8]; I:E ratio 0.3:1, listed as H): 88%; Percent inhibition of HLE ([8]; I:E ratio 0.4:1): 88%; Percent inhibition of HLE ([8]; I:E ratio 0.4:1, listed as H): 87% and 90%; Percent inhibition of HLE ([8]; I:E ratio 0.5:1): 93% and 97.000%; Percent inhibition of HLE ([8]; I:E ratio 0.5:1, listed as H): 87% and 91%; Percent inhibition of HLE ([8]; I:E ratio 0.6:1): 99%; Percent inhibition of HLE ([8]; I:E ratio 1:1): 98%; Percent inhibition of HLE ([8]; I:E ratio 1.5:1): 98%; Percent inhibition of HLE ([8]; I:E ratio 2:1): 98% and 99.000%; USP Activity (anti-coagulant activity) ([11]; Table VII): 173.0 u/mg; USP anticoagulant activity ([11]; listed as porcine intestinal mucosal sodium heparin): 173.0 units/mg; USP anticoagulant activity ([11]; listed as starting heparin): 170 units/mg |
